Reference: patent US20240270762A1, “PENICILLIN-BINDING PROTEIN INHIBITORS” (priority 2021, published 2024)
Converted amounts (≈) assume the structure as drawn.

system: A. baumannii CDC-0083; assay: microbe, parasite or virus in culture; type: cell-based; details: Acinetobacter baumannii, CDC0083, read-out: MIC, A. baumannii CDC-0083

SMILES | MIC
O=C(NCCS(=O)(=O)N1CCN(C(=O)N[C@@H](C(=O)N[C@H]2Cc3ccc(F)c(C(=O)O)c3OB2O)c2cc(F)c(O)c(O)c2Cl)C1=O)Nc1cccnc1 [Example 267, (R)-3-((R)-2-(2-chloro-5-fluoro-3,4-dihydroxyphenyl)-2-(2-oxo-3-((2-(3-(pyridin-3-yl)ureido)ethyl)sulfonyl)imidazolidine-1-carboxamido)acetamido)-7-fluoro-2-hydroxy-3,4-dihydro-2H-benzo[e][1,2]oxaborinine-8-carboxylic acid] | < 1 µg/mL
O=C(CN1CCN(C(=O)NC(C(=O)N[C@H]2Cc3ccc(F)c(C(=O)O)c3OB2O)c2cc(F)c(O)c(O)c2Cl)C(=O)C1=O)NCc1cccc(O)c1 (stereo partly drawn) [Example 237, (3R)-3-(2-(2-chloro-5-fluoro-3,4-dihydroxyphenyl)-2-(4-(2-((3-hydroxybenzyl)amino)-2-oxoethyl)-2,3-dioxopiperazine-1-carboxamido)acetamido)-7-fluoro-2-hydroxy-3,4-dihydro-2H-benzo[e][1,2]oxaborinine-8-carboxylic acid] | > 128 µg/mL
O=C(O)c1c(F)ccc2c1OB(O)[C@@H](NC(=O)C(NC(=O)N1CCN(CCNC(=O)[C@@H]3CCCN3)C1=O)c1cc(F)c(O)c(O)c1Cl)C2 (stereo partly drawn) [Example 248, (3R)-3-(2-(2-chloro-5-fluoro-3,4-dihydroxyphenyl)-2-(2-oxo-3-(2-((S)-pyrrolidine-2-carboxamido)ethyl)imidazolidine-1-carboxamido)acetamido)-7-fluoro-2-hydroxy-3,4-dihydro-2H-benzo[e][1,2]oxaborinine-8-carboxylic acid] | < 1 µg/mL
O=C(NCCN1CCN(C(=O)NC(C(=O)N[C@H]2Cc3ccc(F)c(C(=O)O)c3OB2O)c2cc(F)c(O)c(O)c2Cl)C1=O)c1ccccc1 (stereo partly drawn) [Example 242, (3R)-3-(2-(3-(2-benzamidoethyl)-2-oxoimidazolidine-1-carboxamido)-2-(2-chloro-5-fluoro-3,4-dihydroxyphenyl)acetamido)-7-fluoro-2-hydroxy-3,4-dihydro-2H-benzo[e][1,2]oxaborinine-8-carboxylic acid] | 2 to 4 µg/mL (≈ 2.85 to 5.7 µM)
O=C(CN1CCN(C(=O)NC(C(=O)N[C@H]2Cc3ccc(F)c(C(=O)O)c3OB2O)c2cc(F)c(O)c(O)c2Cl)C(=O)C1=O)NCc1cccnc1 (stereo partly drawn) [Example 240, (3R)-3-(2-(2-chloro-5-fluoro-3,4-dihydroxyphenyl)-2-(2,3-dioxo-4-(2-oxo-2-((pyridin-3-ylmethyl)amino)ethyl)piperazine-1-carboxamido)acetamido)-7-fluoro-2-hydroxy-3,4-dihydro-2H-benzo[e][1,2]oxaborinine-8-carboxylic acid] | > 128 µg/mL
CN(CCN1CCN(C(=O)N[C@@H](C(=O)N[C@H]2Cc3ccc(F)c(C(=O)O)c3OB2O)c2cc(F)c(O)c(O)c2Cl)C(=O)C1=O)Cc1nccs1 [Example 200, (R)-3-((R)-2-(2-chloro-5-fluoro-3,4-dihydroxyphenyl)-2-(4-(2-(methyl(thiazol-2-ylmethyl)amino)ethyl)-2,3-dioxopiperazine-1-carboxamido)acetamido)-7-fluoro-2-hydroxy-3,4-dihydro-2H-benzo[e][1,2]oxaborinine-8-carboxylic acid] | < 1 µg/mL
O=C(CN1CCN(C(=O)NC(C(=O)N[C@H]2Cc3ccc(F)c(C(=O)O)c3OB2O)c2cc(F)c(O)c(O)c2Cl)C(=O)C1=O)Nc1ccccc1 (stereo partly drawn) [Example 232, (3R)-3-(2-(2-chloro-5-fluoro-3,4-dihydroxyphenyl)-2-(2,3-dioxo-4-(2-oxo-2-(phenylamino)ethyl)piperazine-1-carboxamido)acetamido)-7-fluoro-2-hydroxy-3,4-dihydro-2H-benzo[e][1,2]oxaborinine-8-carboxylic acid] | > 128 µg/mL
O=C(NCCCN1CCN(C(=O)NC(C(=O)N[C@H]2Cc3ccc(F)c(C(=O)O)c3OB2O)c2cc(F)c(O)c(O)c2Cl)C(=O)C1=O)Nc1cccc(O)c1 (stereo partly drawn) [Example 206, (3R)-3-(2-(2-chloro-5-fluoro-3,4-dihydroxyphenyl)-2-(4-(3-(3-(3-hydroxyphenyl)ureido)propyl)-2,3-dioxopiperazine-1-carboxamido)acetamido)-7-fluoro-2-hydroxy-3,4-dihydro-2H-benzo[e][1,2]oxaborinine-8-carboxylic acid] | < 1 µg/mL
O=C(CN1CCN(C(=O)NC(C(=O)N[C@H]2Cc3ccc(F)c(C(=O)O)c3OB2O)c2cc(F)c(O)c(O)c2Cl)C(=O)C1=O)Nc1ccncc1 (stereo partly drawn) [Example 233, (3R)-3-(2-(2-chloro-5-fluoro-3,4-dihydroxyphenyl)-2-(2,3-dioxo-4-(2-oxo-2-(pyridin-4-ylamino)ethyl)piperazine-1-carboxamido)acetamido)-7-fluoro-2-hydroxy-3,4-dihydro-2H-benzo[e][1,2]oxaborinine-8-carboxylic acid] | < 1 µg/mL
O=C(NCCN1CCN(C(=O)NC(C(=O)N[C@H]2Cc3ccc(F)c(C(=O)O)c3OB2O)c2cc(F)c(O)c(O)c2Cl)C(=O)C1=O)c1cccc(O)c1 (stereo partly drawn) [Example 215, (3R)-3-(2-(2-chloro-5-fluoro-3,4-dihydroxyphenyl)-2-(4-(2-(3-hydroxybenzamido)ethyl)-2,3-dioxopiperazine-1-carboxamido)acetamido)-7-fluoro-2-hydroxy-3,4-dihydro-2H-benzo[e][1,2]oxaborinine-8-carboxylic acid] | > 128 µg/mL
O=C(CN1CCN(C(=O)NC(C(=O)N[C@H]2Cc3ccc(F)c(C(=O)O)c3OB2O)c2cc(F)c(O)c(O)c2Cl)C(=O)C1=O)Nc1cccc(O)c1 (stereo partly drawn) [Example 231, (3R)-3-(2-(2-chloro-5-fluoro-3,4-dihydroxyphenyl)-2-(4-(2-((3-hydroxyphenyl)amino)-2-oxoethyl)-2,3-dioxopiperazine-1-carboxamido)acetamido)-7-fluoro-2-hydroxy-3,4-dihydro-2H-benzo[e][1,2]oxaborinine-8-carboxylic acid] | > 128 µg/mL
O=C(CN1CCN(C(=O)N[C@@H](C(=O)N[C@H]2Cc3ccc(F)c(C(=O)O)c3OB2O)c2cc(F)c(O)c(O)c2Cl)C(=O)C1=O)NCc1ccncc1 [Example 239, (R)-3-((R)-2-(2-chloro-5-fluoro-3,4-dihydroxyphenyl)-2-(2,3-dioxo-4-(2-oxo-2-((pyridin-4-ylmethyl)amino)ethyl)piperazine-1-carboxamido)acetamido)-7-fluoro-2-hydroxy-3,4-dihydro-2H-benzo[e][1,2]oxaborinine-8-carboxylic acid] | < 1 µg/mL
O=C(NCCCS(=O)(=O)N1CCN(C(=O)N[C@H](C(=O)N[C@H]2Cc3ccc(F)c(C(=O)O)c3OB2O)c2cc(F)c(O)c(O)c2Cl)C1=O)c1cccc(O)c1 [Example 270, (R)-3-((S)-2-(2-chloro-5-fluoro-3,4-dihydroxyphenyl)-2-(3-((3-(3-hydroxybenzamido)propyl)sulfonyl)-2-oxoimidazolidine-1-carboxamido)acetamido)-7-fluoro-2-hydroxy-3,4-dihydro-2H-benzo[e][1,2]oxaborinine-8-carboxylic acid] | 2 to 4 µg/mL (≈ 2.51 to 5.03 µM)
O=C(NCCCN1CCN(C(=O)N[C@H](C(=O)N[C@H]2Cc3ccc(F)c(C(=O)O)c3OB2O)c2cc(F)c(O)c(O)c2Cl)C1=O)c1ccccc1 [Example 252, (R)-3-((S)-2-(3-(3-benzamidopropyl)-2-oxoimidazolidine-1-carboxamido)-2-(2-chloro-5-fluoro-3,4-dihydroxyphenyl)acetamido)-7-fluoro-2-hydroxy-3,4-dihydro-2H-benzo[e][1,2]oxaborinine-8-carboxylic acid] | > 128 µg/mL
O=C(CN1CCN(C(=O)NC(C(=O)N[C@H]2Cc3ccc(F)c(C(=O)O)c3OB2O)c2cc(F)c(O)c(O)c2Cl)C(=O)C1=O)NCc1ccccc1 (stereo partly drawn) [Example 238] | > 128 µg/mL
